Like-named read-outs stand apart in the source and are kept apart here.
Assays:
[1] = Effect of activated charcoal on Compound 1 saline formulation; settings: 5 mg/mL in 0.9% NaCl
streptococci = experiment: In vitro antibacterial activity, agar dilution; format: cell-based, Streptococcus
Experimental: Various bacterial species, such as Gram positive bacteria (e.g., Clostridium, Staphylococcus and Streptococcus), Gram negative bacteria (e.g., Moraxella, Haemophilus, Pseudomonas, Proteus, and Bacteriodes), anaerobic and atypical pathogens, were isolated from clinical samples. The antibacterial activity of Compound of Formula I against these bacterial species were determined using agar dilution assays described in the U.S. National Committee for Clinical Laboratory, M7-A6, 2003, and M11-A5, 2001.

[2] = for Appearance: 5 mg/mL (free base) in 0.9% saline, light box 4500Lx+/−500Lx; for UV Absorption: compared with Standard; for UV Absorption / pH Value: intense light 4500Lx+/−500Lx
[3] = 5 mg/mL in 0.9% saline
Experimental: The solution was filtered and transferred to 100-mL polypropylene bottles. The bottles were capped, sealed, sterilized at 110° C. for 35 min, and stored at 60° C. oven. The solution in the bottles was analyzed on days 0, 5, and 10.

[4] = Effect of pH on Compound 1 saline formulation; format: physicochemical
Experimental: 2000 mL solution of Compound 1 in 0.9% saline was prepared in the same manner as described above. The solution was equally divided into 6 portions. The pH values for the 6 portions were adjusted to 2.43, 3.00, 3.76, 4.51, 6.01 and 7.13 by adding dilute hydrochloric acid or sodium hydroxide. The appearance and content of solutions were analyzed and shown below.

[5] = activated charcoal added 0.02% (g/mL)
[6] = activated charcoal added 0.05% (g/mL)
[7] = activated charcoal added 0.5% (g/mL)
[8] = 5 mg/mL in 0.9% saline, pH 3.00
[9] = 5 mg/mL in 0.9% saline, pH 3.76 (no acid/base added)
[10] = 5 mg/mL in 0.9% saline, pH 6.01

## COc1c(N2C[C@@H](C)C[C@H](N)C2)ccc2c(=O)c(C(=O)O)cn(C3CC3)c12 [Compound 1, (3S,5S)-7-[3-amino-5-methyl-piperidinyl]-1-cyclopropyl-1,4-dihydro-8-methoxy-4-oxo-3-quinolinecarboxylic acid]
[1]; activated charcoal added 0
  Comparative content of Compound 1 (%): 109.0%
[1]; activated charcoal added 0, boiled 25 min, filtered, sterilized
  pH Value: 3.96
[1]; [5]
  Comparative content of Compound 1 (%): 108.8%
  pH Value: 3.88
[1]; [6]
  Comparative content of Compound 1 (%): 109.2%
  pH Value: 3.88
[1]; [7]
  Comparative content of Compound 1 (%): 63.9%
  pH Value: 3.80
streptococci; all streptococci in this study
  MIC values: < 1 µg/mL
streptococci; including multi-resistant S. pneumoniae
  antibacterial activity (in words): especially active
[2]; 0 day
  Appearance: Clear yellow
  UV Absorption: Consist with
  pH Value: 3.90
[2]; 5 days
  Appearance: Clear yellow
  UV Absorption: Consist with
  pH Value: 3.89
[2]; 10 days
  Appearance: Clear yellow
  UV Absorption: Consist with
  pH Value: 3.89
[3]; sterilized, 0 day
  Appearance: Clear yellow
  Comparative content of Compound 1 (%): 102.6%
  Total Impurity (%): 0.378%
  pH Value: 3.90
[3]; 5 days at 60° C.
  Appearance: Clear yellow
  Comparative content of Compound 1 (%): 103.2%
  Total Impurity (%): 0.375%
  pH Value: 3.88
[3]; 10 days at 60° C.
  Appearance: Clear yellow
  Comparative content of Compound 1 (%): 104.0%
  Total Impurity (%): 0.410%
  pH Value: 3.88
[4]; 5 mg/mL in 0.9% saline, no acid/base added
  pH Value: 3.76
[4]; [8]
  Appearance: clear yellow solution
  Comparative content of Compound 1 (%): 94.87%
[4]; [9]
  Appearance: clear yellow solution
  Comparative content of Compound 1 (%): 103.62%
[4]; [10]
  Appearance: clear yellow solution
  Comparative content of Compound 1 (%): 99.63%
[4]; 5 mg/mL in a saline solution
  pH at which Compound 1 precipitated: 6.6

From patent publication US8658183B2, “Antimicrobial parenteral formulation” (Taigen Biotechnology Company, Ltd., priority 2007, dated 2014)
